Reference: the supplement of paper PMC11061612

How the values were obtained:
Assay in all cases: Bliss excess, mean over the matrix (fraction); higher = more synergy
[1] = tested on: SNU-423 (Hepatocellular Carcinoma)
In short: (§1)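 Cell lines in DMEM/F12 or RPMI with 10% FBS were plated in 1536-well plates, held 24 hours at 37°C, 5% CO2, then given two-drug dose matrices for 72 hours (DMSO typically 0.2%). Viability was read by CellTiter-Glo 2.0 luminescence and scaled as inhibition from 0 (vehicle wells) to 1 (blank wells). Combination Emax is the second-highest inhibition in the matrix; Bliss excess is observed combination effect minus expected EA + EB − EA·EB, EA and EB being single-agent effects.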

[2] = tested on: MS-1 (Small Cell Lung Carcinoma)
In short: as §1

[3] = tested on: SCC-4 (Oral Cavity Carcinoma)
In short: as §1

[4] = tested on: T84 (Colorectal Carcinoma)
In short: as §1

GAK (Melanoma) = tested on: GAK (Melanoma)
In short: as §1

SK-N-SH (Neuroblastoma) = tested on: SK-N-SH (Neuroblastoma)
In short: as §1

[5] = tested on: SKG-IIIa (Cervical Carcinoma)
In short: as §1

[6] = tested on: RCC-JW (Kidney Carcinoma)
In short: as §1

[7] = tested on: ZR-75-30 (Breast Carcinoma)
In short: as §1

NCI-H226 (Mesothelioma) = tested on: NCI-H226 (Mesothelioma)
In short: as §1

KALS-1 (Glioblastoma) = tested on: KALS-1 (Glioblastoma)
In short: as §1

[8] = tested on: NAMALWA (Burkitt's Lymphoma)
In short: as §1

ES6 (Ewing's Sarcoma) = tested on: ES6 (Ewing's Sarcoma)
In short: as §1

[9] = tested on: NCI-H3118 (Head and Neck Carcinoma)
In short: as §1

IST-MEL1 (Melanoma) = tested on: IST-MEL1 (Melanoma)
In short: as §1

[10] = tested on: MDA-MB-415 (Breast Carcinoma)
In short: as §1

[11] = tested on: LS-1034 (Colorectal Carcinoma)
In short: as §1

[12] = tested on: C-33-A (Cervical Carcinoma)
In short: as §1

[13] = tested on: BxPC-3 (Pancreatic Carcinoma)
In short: as §1

[14] = tested on: IA-LM (Non-Small Cell Lung Carcinoma)
In short: as §1

| Compound | Bliss excess [1] | Bliss excess [2] | Bliss excess [3] | Bliss excess [4] | Bliss excess (GAK (Melanoma)) | Bliss excess (SK-N-SH (Neuroblastoma)) | Bliss excess [5] | Bliss excess [6] | Bliss excess [7] | Bliss excess (NCI-H226 (Mesothelioma)) | Bliss excess (KALS-1 (Glioblastoma)) | Bliss excess [8] | Bliss excess (ES6 (Ewing's Sarcoma)) | Bliss excess [9] | Bliss excess (IST-MEL1 (Melanoma)) | Bliss excess [10] | Bliss excess [11] | Bliss excess [12] | Bliss excess [13] | Bliss excess [14] |
| --- | --- | --- | --- | --- | --- | --- | --- | --- | --- | --- | --- | --- | --- | --- | --- | --- | --- | --- | --- | --- |
| C=CCn1c(=O)c2cnc(Nc3ccc(N4CCN(C)CC4)cc3)nc2n1-c1cccc(C(C)(C)O)n1 [AZD1775] + CCc1c2c(nc3ccc(O)cc13)-c1cc3c(c(=O)n1C2)COC(=O)[C@]3(O)CC [SN-38] (first compound max 1 µM, partner max 0.3 µM) | -0.0644 | -0.0292 | -0.0732 | 0.0598 | -0.0432 | -0.019 | -0.0319 | -0.0187 | -0.0938 | -0.0755 | 0.0642 | -0.0172 | -0.0995 | -0.0284 | -0.0827 | -0.009 | 0.0498 | 0.0561 | -0.101 | -0.0699 |
| C=CCn1c(=O)c2cnc(Nc3ccc(N4CCN(C)CC4)cc3)nc2n1-c1cccc(C(C)(C)O)n1 [AZD1775] + Nc1ccn([C@@H]2O[C@H](CO)[C@@H](O)C2(F)F)c(=O)n1 [Gemcitabine] (first compound max 1 µM, partner max 0.3 µM) | -0.0538 | -0.0721 | -0.0574 | 0.0564 | -0.0443 | -0.0051 | 0.0393 | -0.0163 | -0.0561 | 0.0067 | 0.0299 | 0.0247 | -0.0385 | -0.0638 | 0.0144 | 0.0228 | 0.0159 | 0.0713 | -0.029 | -0.0454 |
| CN(CCO)CC[C@H](CSc1ccccc1)Nc1ccc(S(=O)(=O)NC(=O)c2ccc(N3CCC([C@@H](O)c4ccccc4-c4ccc(Cl)cc4)CC3)cc2)cc1S(=O)(=O)C(F)(F)F [AZD4320] + CC(=O)O[C@H]1C(=O)[C@@]2(C)[C@H]([C@H](OC(=O)c3ccccc3)[C@]3(O)C[C@H](OC(=O)[C@H](O)[C@@H](NC(=O)c4ccccc4)c4ccccc4)C(C)=C1C3(C)C)[C@]1(OC(C)=O)CO[C@@H]1C[C@@H]2O [Paclitaxel] (first compound max 1 µM, 7x7, partner max 3 µM) | 0.0819 | 0.0825 | 0.0946 | -0.0222 | 0.0815 | -0.0254 | 0.133 | 0.0707 | 0.0901 | 0.131 | 0.0468 | -0.01 | 0.101 | 0.019 | 0.238 | -0.0059 | 0.0038 | 0.0811 | 0.157 | 0.08 |
| CN(CCO)CC[C@H](CSc1ccccc1)Nc1ccc(S(=O)(=O)NC(=O)c2ccc(N3CCC([C@@H](O)c4ccccc4-c4ccc(Cl)cc4)CC3)cc2)cc1S(=O)(=O)C(F)(F)F [AZD4320] + CS(=O)(=O)CCNCc1ccc(-c2ccc3ncnc(Nc4ccc(OCc5cccc(F)c5)c(Cl)c4)c3c2)o1 [Lapatinib] (first compound max 1 µM, 7x7, partner max 10 µM) | 0.017 | 0.068 | 0.0692 | -0.0061 | 0.0059 | 0.112 | -0.0081 | -0.0443 | 0.0458 | -0.0437 | 0.0176 | -0.015 | -0.0017 | 0.0041 | -0.0011 | 0.0355 | 0.0441 | 0.0074 | -0.025 | -0.0137 |
| CN(CCO)CC[C@H](CSc1ccccc1)Nc1ccc(S(=O)(=O)NC(=O)c2ccc(N3CCC([C@@H](O)c4ccccc4-c4ccc(Cl)cc4)CC3)cc2)cc1S(=O)(=O)C(F)(F)F [AZD4320] + Nc1ccn([C@@H]2O[C@H](CO)[C@@H](O)C2(F)F)c(=O)n1 [Gemcitabine] (first compound max 1 µM, 7x7, partner max 0.3 µM) | 0.0088 | -0.0023 | 0.0027 | -0.0434 | 0.0955 | 0.0106 | 0.0259 | -0.0025 | -0.0052 | -0.0209 | 0.0063 | – | 0.0253 | -0.0638 | 0.134 | 0.0347 | -0.0357 | 0.0113 | -0.0248 | 0.0296 |
| Cc1c2c(nn1C)CSCc1cc(n(C)n1)CSc1cc(c3ccccc3c1)OCCCc1c(C(=O)O)n(C)c3c-2c(Cl)ccc13 [AZD5991] + CC(=O)O[C@H]1C(=O)[C@@]2(C)[C@H]([C@H](OC(=O)c3ccccc3)[C@]3(O)C[C@H](OC(=O)[C@H](O)[C@@H](NC(=O)c4ccccc4)c4ccccc4)C(C)=C1C3(C)C)[C@]1(OC(C)=O)CO[C@@H]1C[C@@H]2O [Paclitaxel] (first compound max 1 µM, 7x7, partner max 3 µM) | -0.0344 | -0.0135 | -0.0628 | -0.0379 | 0.0893 | -0.0507 | -0.036 | -0.0029 | 0.0617 | -0.008 | 0.0314 | 0.0041 | 0.005 | 0.0079 | -0.0215 | 0.0268 | -0.0473 | -0.0095 | 0.0075 | -0.0452 |
| Cc1c2c(nn1C)CSCc1cc(n(C)n1)CSc1cc(c3ccccc3c1)OCCCc1c(C(=O)O)n(C)c3c-2c(Cl)ccc13 [AZD5991] + CS(=O)(=O)CCNCc1ccc(-c2ccc3ncnc(Nc4ccc(OCc5cccc(F)c5)c(Cl)c4)c3c2)o1 [Lapatinib] (first compound max 1 µM, 7x7, partner max 10 µM) | -0.0272 | -0.0273 | 0.0449 | 0.0239 | 0.015 | 0.0615 | 0.0014 | -0.0401 | 0.063 | -0.0183 | 0.0053 | -0.0204 | 0.0331 | 0.0426 | -0.005 | 0.0015 | -0.0332 | 0.0485 | -0.005 | -0.0292 |
| Cc1c2c(nn1C)CSCc1cc(n(C)n1)CSc1cc(c3ccccc3c1)OCCCc1c(C(=O)O)n(C)c3c-2c(Cl)ccc13 [AZD5991] + Nc1ccn([C@@H]2O[C@H](CO)[C@@H](O)C2(F)F)c(=O)n1 [Gemcitabine] (first compound max 1 µM, 7x7, partner max 0.3 µM) | -0.0672 | -0.0371 | -0.0333 | -0.0187 | 0.01 | -0.0198 | -0.0271 | 0.0274 | 0.0283 | -0.024 | -0.0036 | -0.0379 | -0.002 | -0.0107 | -0.0045 | -0.0407 | -0.0473 | 0.0332 | 0.0052 | -0.0384 |
| C[C@@H]1COCCN1c1cc(C2([S@](C)(=N)=O)CC2)nc(-c2ccnc3[nH]ccc23)n1 [AZD6738] + C1CC(C1)(C(=O)[O-])C(=O)[O-].N.N.[Pt+2] [Carboplatin] (first compound max 10 µM, 7x7, partner max 10 µM) | -0.0425 | -0.093 | 0 | -0.0041 | -0.0442 | -0.028 | -0.0079 | 0.0051 | -0.0119 | -0.0383 | -0.0426 | -0.0293 | -0.0116 | -0.0423 | -0.0271 | 0.0134 | -0.0575 | -0.0043 | -0.0539 | -0.047 |
| C[C@@H]1COCCN1c1cc(C2([S@](C)(=N)=O)CC2)nc(-c2ccnc3[nH]ccc23)n1 [AZD6738] + Nc1ccn([C@@H]2O[C@H](CO)[C@@H](O)C2(F)F)c(=O)n1 [Gemcitabine] (first compound max 10 µM, 7x7, partner max 0.3 µM) | 0.0969 | 0.0014 | 0.0044 | 0.0477 | -0.0055 | 0.0248 | 0.0657 | 0.0928 | 0.0117 | 0.041 | 0.0483 | 0.0357 | -0.0072 | 0.0134 | 0.0314 | 0.065 | 0.0853 | 0.032 | 0.008 | -0.027 |
| Cc1cc2ncnn2cc1Nc1ncc2c(n1)n(C1CCOCC1)c(=O)n2C [AZD7648] + COc1cc([C@@H]2c3cc4c(cc3[C@@H](O[C@@H]3O[C@@H]5CO[C@@H](C)O[C@H]5[C@H](O)[C@H]3O)[C@H]3COC(=O)[C@H]23)OCO4)cc(OC)c1O [Etoposide] (first compound max 10 µM, 7x7, partner max 10 µM) | 0.0551 | 0.0655 | 0.0043 | -0.0105 | 0.0732 | 0.0634 | 0.0558 | 0.132 | -0.0044 | 0.0215 | 0.101 | 0.0745 | -0.0009 | 0.0669 | 0.0192 | 0.0025 | -0.0205 | 0.0997 | -0.0254 | -0.0116 |
| C[C@@H](Nc1cc(F)cc(F)c1)c1cc(C(=O)N(C)C)cc2c(=O)cc(N3CCOCC3)oc12 [AZD8186] + C1CN(CCC1(C(=O)N[C@@H](CCO)C2=CC=C(C=C2)Cl)N)C3=NC=NC4=C3C=CN4 [AZD5363] (first compound max 10 µM, 7x7, partner max 10 µM) | -0.0692 | -0.0446 | -0.0276 | -0.0085 | -0.0303 | -0.0269 | -0.0225 | 0.0563 | -0.0104 | -0.0272 | -0.0397 | 0.0078 | -0.0213 | -0.022 | -0.013 | -0.0251 | -0.0177 | -0.0501 | -0.0731 | 0.001 |
| N#Cc1cnc(Nc2cc(NC[C@H]3CNCCO3)c(C(F)(F)F)cn2)cn1 [SRA737] + CCc1c2c(nc3ccc(O)cc13)-c1cc3c(c(=O)n1C2)COC(=O)[C@]3(O)CC [SN-38] (first compound max 10 µM, 7x7, partner max 0.3 µM) | 0.0367 | -0.0022 | 0.007 | -0.0351 | – | -0.0471 | 0.0311 | -0.0857 | -0.0375 | -0.0592 | 0.0836 | -0.0123 | -0.0423 | -0.0085 | -0.0613 | 0.0404 | 0.083 | 0.0384 | -0.0428 | -0.0646 |
| N#Cc1cnc(Nc2cc(NC[C@H]3CNCCO3)c(C(F)(F)F)cn2)cn1 [SRA737] + Nc1ccn([C@@H]2O[C@H](CO)[C@@H](O)C2(F)F)c(=O)n1 [Gemcitabine] (first compound max 10 µM, 7x7, partner max 0.3 µM) | 0.0518 | 0.0566 | – | 0.0819 | -0.011 | -0.0168 | 0.13 | 0.0179 | -0.0408 | 0.0349 | 0.0597 | 0.0256 | -0.0212 | 0.0007 | -0.0023 | 0.115 | 0.145 | 0.0954 | -0.0421 | -0.0365 |
